This note sets out measurements from PMC3313936 (PLoS ONE, 2012).

Read-outs that look alike come from different tables or passages of the source.

Test [1] has as its target T1, CBM32-5 (Clostridium perfringens, UniProt A0A0H2YU91).
T1 construct: gene CPF_0859
Particulars: 20 mM Tris-HCl pH 8.0; 20 °C (table; methods say 25 °C).

For test [2], the target named is T1, CBM32-5. Particulars: co-crystallised with 10 mM ligand, pH 5.6.
Another test concerns the target T2, CBM32-4 (Clostridium perfringens, UniProt A0A0H2YU91).
T2 construct: gene CPF_0859
To be noted: 50 mM HEPES pH 7.5, 25 °C; one-site fit, n fixed at 1.

The target in the next test is T3, CBM32-3 (Clostridium perfringens, UniProt A0A0H2YU91).
T3 construct: gene CPF_0859
Particulars: 50 mM HEPES pH 7.5, 25 °C; one-site fit, n fixed at 1.

Test [3] has as its target T1, CBM32-5. To be noted: glycan immobilised on array; labelled protein.
Test [4] deals with T1, CBM32-5. Particulars: 20 mM Tris-HCl pH 8.0; 20 °C (table; methods say 25 °C); n fixed at 1.

In the case of `OC[C@H]1O[C@@H](O[C@H]2[C@H](O)[C@@H](O)C(O)O[C@@H]2CO)[C@H](O)[C@@H](O)[C@H]1O` (stereo partly drawn) [Lactose], the “Ka (M^-1)” value at CBM32-5 [1] is given as 2.40 (±0.58)×10^3.

On to `CC(=O)N[C@H]1[C@@H](OC[C@H](N)C(=O)O)O[C@H](CO)[C@H](O)[C@@H]1O` [Tn antigen, N-acetyl-α-D-galactosaminyl-1-O-serine], for which the “X-ray crystal structure of complex, 1.70 Å” value at CBM32-5 [2] is on record as 4a44 for CBM32-5 in complex with the Tn Antigen.

On to `CC(=O)N[C@H]1C(O)O[C@H](CO)[C@H](O)[C@@H]1O` (stereo partly drawn) [D-GalNAc], for which, at CBM32-5 [1], the “Ka (M^-1)” value is given as 5.01 (±0.64)×10^3.

For `CC(=O)N[C@H]1[C@@H](O[C@@H]2[C@H](O)[C@@H](O)C(O)O[C@@H]2CO)O[C@H](CO)[C@@H](O)[C@@H]1O` (stereo partly drawn) [GlcNAc-α-1,4-Gal], the association constant on CBM32-4 is given as 1.38 (±0.08)×10^4; at CBM32-3, 2.64 (±0.64)×10^4.

In the case of `CC(=O)N[C@H]1[C@@H](O[C@@H]2[C@H](O)[C@@H](O[C@@H]3O[C@@H](C)[C@@H](O)[C@@H](O)[C@@H]3O)[C@H](O[C@H]3[C@H](O)[C@@H](NC(C)=O)C(O)O[C@@H]3CO)O[C@@H]2CO)O[C@H](CO)[C@H](O)[C@@H]1O` (stereo partly drawn) [GalNAc-α-1,4(Fuc-α-1,2)-Gal-β-1,4-GlcNAc], on CBM32-5 [3], the glycan microarray result is listed as “this synthetic carbohydrate was clearly the top ligand from the array analysis”.

With `CC(=O)N[C@H]1C(O)O[C@H](CO)[C@H](O)[C@@H]1O[C@@H]1O[C@H](CO)[C@H](O)[C@H](O)[C@H]1O` (stereo partly drawn) [Gal-β-1,3-GalNAc], at CBM32-5 [1], the “Ka (M^-1)” value is 3.77 (±0.34)×10^3.

With `OC[C@H]1OC(O)[C@H](O)[C@@H](O)[C@H]1O` (stereo partly drawn) [D-galactose], the “Ka (M^-1)” value at CBM32-5 [1] is 1.69 (±0.05)×10^3.

Take `CC(=O)N[C@H]1[C@H](O[C@H]2[C@@H](O)[C@@H](CO)OC(O)[C@@H]2O)O[C@H](CO)[C@H](O)[C@@H]1O` (stereo partly drawn) [GalNAc-β-1,3-Gal]: the “Ka (M^-1)” value at CBM32-5 [4] is recorded as 3.40 (±0.10)×10^3.
